From PubChem BioAssay AID2060901 (Molecular Pharmacology Branch, DTP, NCI, 2025)

Tested on: 422866-222-R5-J1-PDC complex spheroids viability
Experiment: Anticancer human tumor 422866-222-R5-J1-PDC patient-derived pancreatic adenocarcinoma cell line growth inhibition [RAS]
Conditions: for IC50: curve of first compound; for viability, T/C: stronger effect = lower value
Description: RAS pathway inhibitors in Combinations in Complex Spheroids
A high-throughput screen of multi-cell type tumor spheroids was designed to identify active combinations of RAS pathway inhibitors and targeted small molecules. Complex spheroids include a stromal component modeled by human endothelial cells (HUVEC) and fibroblasts modeled by human mesenchymal stem cells (MSCs). The concentration ranges selected for each drug and investigational agent were based upon clinically achievable concentrations if the clinical Cmax of the agent was known.
Compounds. The drugs and investigational agents: abemaciclib (NSC768073), cobimetinib (NSC768068), divarasib (GDC6063, NSC841802), docetaxel (NSC628503), GDC-1971 (RLY-1971, NSC841576), gemcitabine (NSC613327), inavolisib (NSC800729), ipatasertib (NSC767898), KB-0742 (NSC834161), MRTX-1133 (NSC836407), osimertinib (NSC779217), RMC-4630 (NSC839698), RMC-6236 (NSC851965), RMC-6291 (NSC852671), Ro-3306 (NSC812927), sapanisertib (NSC764658), SN-38 (NSC673596), staurosporine (NSC755774), SY5609 (NSC837396), and tovorafenib (DAY101, NSC766906), were obtained from the National Cancer Institute (NCI) Developmental Therapeutics Program Chemical Repository. The FDA-approved anticancer drug set is available from the NCI Developmental Therapeutics Program. […] The stock solutions were prepared in dimethyl sulfoxide (DMSO, Sigma-Aldrich, St. Louis, MO, cat. D2650) at 800-fold the tested concentration and stored at -70 degrees C prior to their use. All drugs and investigational agents were tested over a range starting from a high concentration at or near the clinical Cmax and decreasing in half-log increments. If the clinical Cmax for an agent had not been determined, the highest concentration tested was 10 microM.
Cell Culture. All cells were maintained in an incubator at 37 degrees C and 5% CO2 with 95% humidity. The PDC lines were cultured according to standard operating procedures established by the NCI PDMR. All PDCs were thawed and cultured in Matrigel-coated flasks prepared with a working solution of 1X Ham's F-12 nutrient mix, without supplementation (Invitrogen, Waltham, MA, cat. 11765054), 100 U/mL penicillin-streptomycin (Invitrogen, cat. 15140122), and 2.5% Matrigel (Corning Inc., Corning, NY, cat. 354248) for the first three passages. The 362531-283-R-J2-PDC and 782815-120-R-J1-PDC lines were cultured in 6C/Colon 1B media, which includes advanced DMEM/F-12 (Thermo Fisher Scientific, cat. 12634028), 10 mM HEPES (Thermo Fisher Scientific, cat. 15630080), 1X GlutaMAX supplement (Thermo Fisher Scientific, cat. 35050061), 0.1 mg/mL primocin (InvivoGen, San Diego, CA, cat. ant-pm-2), 10% defined fetal bovine serum, heat inactivated (HyClone Laboratories Inc., Logan, UT, cat. SH30070.03HI), 50% L-WRN conditioned media (ATCC, cat. CRL-3276), 1.25 mM N-Acetyl-L-cysteine (Sigma-Aldrich, cat. A9165), 10 mM nicotinamide (Sigma-Aldrich, cat. N0636), 1X B-27 supplement (Thermo Fisher Scientific, cat. 17504044), 1X N-2 supplement (Thermo Fisher Scientific, cat. 17502048), 50 ng/mL human EGF (Thermo Fisher Scientific, cat. PHG0311), and 10 microM Y-27632 dihydrochloride (Tocris Bioscience, cat. 1254). The K12877-001-R-J1-PDC line was cultured in 6I media, which includes all 6C/Colon 1B media plus 10 ng/mL human FGF-10 (PeproTech, cat. 100-26), 1 ng/mL human FGF-2 (PeproTech, cat. 100-18B), 1 µM prostaglandin E2 (Tocris Bioscience, cat. 2296), […] hydrocortisone (Sigma-Aldrich, cat. H4001), and […] bovine insulin (Sigma-Aldrich, cat. I6634). The K86415-001-R-J1-PDC line was cultured in 6D media, which includes all 6C/Colon 1B media components minus the L-WRN conditioned media. The 485176-168-R4-J1-PDC was cultured in PANC media, which includes all 6C/Colon 1B media plus 100 ng/mL human FGF-10 (PeproTech, cat. 100-26), 500 nM SB-431542 (Selleckchem, cat. S1067), and 10 nM gastrin (Tocris Bioscience, cat. 3006). […]
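Further: spheroids exposed to compounds for 7 days.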
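Wherever viability, T/C is given: 100% = DMSO vehicle control viability.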

- IC50 (second compound 0.0316 µM): 7.57 µM
- IC50 (second compound 0.1 µM): 8.44 µM
- IC50 (second compound 0.316 µM): > 10 µM
- IC50 (second compound 1 µM): < 0.0316 µM
- IC50 (second compound 3.16 µM): < 0.0316 µM
- IC50 (second compound 10 µM): < 0.0316 µM
Structure (SMILES): CC1(O)CCCC1n1c(=O)c(C(F)F)cc2cnc(NC3CCN(S(C)(=O)=O)CC3)nc21 (configuration not stated) + C#Cc1c(F)ccc2cc(O)cc(-c3ncc4c(N5CC6CCC(C5)N6)nc(OCC56CCCN5CC(F)C6)nc4c3F)c12
- viability, T/C (second compound 0.0316 µM, first compound 0.0316 µM): 73.3%
- viability, T/C (second compound 0.0316 µM, first compound 0.1 µM): 79.7%
- viability, T/C (second compound 0.0316 µM, first compound 0.316 µM): 87.4%
- viability, T/C (second compound 0.0316 µM, first compound 1 µM): 75.5%
- viability, T/C (second compound 0.0316 µM, first compound 3.16 µM): 69.4%
- viability, T/C (second compound 0.0316 µM, first compound 10 µM): 43.5%
- viability, T/C (second compound 0.1 µM, first compound 0.0316 µM): 85%
- viability, T/C (second compound 0.1 µM, first compound 0.1 µM): 69.9%
- viability, T/C (second compound 0.1 µM, first compound 0.316 µM): 72.5%
- viability, T/C (second compound 0.1 µM, first compound 1 µM): 78.8%
- viability, T/C (second compound 0.1 µM, first compound 3.16 µM): 73%
- viability, T/C (second compound 0.1 µM, first compound 10 µM): 46%
- viability, T/C (second compound 0.316 µM, first compound 0.0316 µM): 67.3%
- viability, T/C (second compound 0.316 µM, first compound 0.1 µM): 67.5%
- viability, T/C (second compound 0.316 µM, first compound 0.316 µM): 64.5%
- viability, T/C (second compound 0.316 µM, first compound 1 µM): 62.5%
- viability, T/C (second compound 0.316 µM, first compound 3.16 µM): 72.6%
- viability, T/C (second compound 0.316 µM, first compound 10 µM): 41.6%
- viability, T/C (second compound 1 µM, first compound 0.0316 µM): 55.4%
- viability, T/C (second compound 1 µM, first compound 0.1 µM): 43.7%
- viability, T/C (second compound 1 µM, first compound 0.316 µM): 42.2%
- viability, T/C (second compound 1 µM, first compound 1 µM): 60.8%
- viability, T/C (second compound 1 µM, first compound 3.16 µM): 70.4%
- viability, T/C (second compound 1 µM, first compound 10 µM): 43.3%
- viability, T/C (second compound 3.16 µM, first compound 0.0316 µM): 29.6%
- viability, T/C (second compound 3.16 µM, first compound 0.1 µM): 27.6%
- viability, T/C (second compound 3.16 µM, first compound 0.316 µM): 31.6%
- viability, T/C (second compound 3.16 µM, first compound 1 µM): 31.9%
- viability, T/C (second compound 3.16 µM, first compound 3.16 µM): 42.2%
- viability, T/C (second compound 3.16 µM, first compound 10 µM): 32.3%
- viability, T/C (second compound 10 µM, first compound 0.0316 µM): 21%
- viability, T/C (second compound 10 µM, first compound 0.1 µM): 21.5%
- viability, T/C (second compound 10 µM, first compound 0.316 µM): 25%
- viability, T/C (second compound 10 µM, first compound 1 µM): 29.3%
- viability, T/C (second compound 10 µM, first compound 3.16 µM): 42.1%
- viability, T/C (second compound 10 µM, first compound 10 µM): 36.5%
